These results are taken from publication PMC5472279, “Genetic, structural, and chemical insights into the dual function of GRASP55 in germ cell Golgi remodeling and JAM-C polarized localization during spermatogenesis” (PLoS Genetics, 2017).

Each structure is given as a SMILES string.

One assay has as its target T1, GST-GRASP55 FL (Mus musculus, UniProt Q99JX3).
T1 construct: gene Gorasp2; full-length aa 2-451, N-terminal GST tag, E. coli BL21(DE3)
Briefly: HTRF competition with biotinylated JAM-B C-terminal 19-mer peptide. The assay is classed as binding.

The next assay concerns the target T2, His-GRASP55 PDZ12 (Mus musculus, UniProt Q99JX3).
T2 construct: gene Gorasp2; tandem PDZ domains PDZ12 aa 2-208, N-terminal 6His tag, E. coli BL21(DE3)
The experiment in a line: differential scanning fluorimetry (SYPRO orange). The class given is binding. The conditions noted are these: 4 μM protein, 50 μM Graspin, PBS, 2.5% DMSO. The source says: differential scanning fluorimetry (SYPRO orange) on His-GRASP55 PDZ12 | […], but not the JAM-C peptide, decreased the GRASP55 melting temperature

As for `CCCCCn1c(SCCCn2c(Br)nc3c2c(=O)[nH]c(=O)n3C)nc2c1c(=O)[nH]c(=O)n2C` [Graspin], the half-maximal inhibitory concentration (IC50) at GST-GRASP55 FL was found to be 8.4 µM. Further, the dTm entry on His-GRASP55 PDZ12 is listed as “Graspin, but not the JAM-C peptide, decreased the GRASP55 melting temperature”.

A word on the IC50: it is the concentration that gives 50% inhibition. A higher IC50 goes with lower potency.
